US20110275574A1, “METHOD OF INHIBITING PROLIFERATION OF HEPATIC STELLATE CELLS” (Agency for Science, Technology and Research, priority 2009, published 2011)

Columns and labels:
Cx43 mRNA = Cx43 mRNA expression by quantitative real-time PCR in HSC-2 cells; type: cell-based, rat
Description: (§1) Cell culture conditions: Primary hepatic stellate cells were isolated from male Wistar rats according to a previously published procedure (Weiskirchen and Gressner, 2005). The protocol was approved by the Institutional Animal Care and Use Committee (IACUC) of the Biomedical Research Council of Singapore. The purity of primary HSCs was assessed by vitamin A autofluorescence one day after isolation. The cell line HSC-2 was described elsewhere (Maubach et al., 2008). All cells were cultivated in a humidified 37° C. incubator circulated with 5% CO2. High glucose Dulbecco's modified Eagle medium (D-MEM) containing 10% fetal bovine serum, 100 units/ml penicillin and 100 μg/ml streptomycin was used during cell culture. Trypsin-EDTA was purchased from Biochrome (Germany). All other cell culture reagents were from Invitrogen (CA, USA).
(§2) Hepatic stellate cells treatment with recombinant human TGF-β1: Twenty four hours prior to treatment, HSCs were seeded in 75 cm^2 tissue culture flasks. At 60-70% cell confluence, recombinant human TGF-β1 (hTGF-[3]) was added at a final concentration of 1 or 10 ng/ml and incubated for 2, 6, 10, 24 or 30 hours. For the control treatment, only phosphate-buffered saline (PBS) was given to the cells. In some experiments, HSC-2 cells were treated with bisindolylmaleimide I (BIM I) at a final concentration of 5 μM for 30 min before treatment with 10 ng/ml hTGF-β1.
Reverse transcription and quantitative PCR: Total RNA was isolated from cells according to the manufacturer's protocol (RNA II kit, Machery-Nagel, Germany). All reagents for reverse transcription and real-time PCR were from Applied Biosystems (CA, USA). One microgram of total RNA was reverse transcribed to cDNA in a total reaction volume of 50 μl at conditions described in the RT kit (N8080234). Real-time PCR reactions were performed using the Fast Real Time PCR System (Applied Biosystems). Three microlitres of cDNA were used in a PCR reaction volume of 10 μl. The Taqman probes for target genes Cx43 and Snai1, as well as for endogenous control β-actin were Rn01433957_m1, Rn00441533_g1 and 4352341E, respectively. The PCR conditions were 95° C. for 20 s and 40 cycles of amplification at 95° C. for 3 s and 60° C. for 30 s.
(§3) Snai1 and connexin 43 siRNAs transfection: Shortly before transfection, 1−2×10^6 HSC-2 cells were seeded in 100 mm cell culture dishes and incubated at 37° C. The siRNA was added at a final concentration of 10 nM to 1 ml of D-MEM without serum, followed by 120 μl of HiPerfect transfection reagent (Qiagen, Germany) and incubated for 10 min. The siRNA/transfection reagent solution was added drop-wise to the cells and incubated for 24 or 48 hours. As mock control, only HiPerfect reagent was added to the cells. The Snai1 siRNAs used were Rn_Snai1—1 and Rn_Snai1—3 and the Cx43 siRNAs used were Rn_Gja1—1 and Rn_Gja1—5 (Qiagen, Germany).

Cx43 protein = Cx43 protein expression by Western blot in HSC-2 cells; type: cell-based, rat
Description: as §2, with “At 60-70% cell confluence, recombinant human TGF-β1 (hTGF-[3]) was added at a final concentration of 1 or 10 ng/ml and incubated for 2, 6, 10, 24 or 30 hours.” left out
SDS-PAGE and Western blot: Cell lysis and subsequent separation of total protein in SDS-PAGE followed by Western blot was performed as recently described (Lim et al., 2008). The membrane was blocked with 5% non-fat milk in TBS-Tween (TBS-T). The Cx43 (sc-9059, Santa Cruz Biotechnology, USA), phosphorylated Cx43 at serine 368 (pCx43 Ser368, 3511S, Cell Signaling Technology, USA), PCNA (Ab29, Abcam, UK) and β-actin (A2228, Sigma, USA) primary antibodies were applied at a dilution of 1:1000, 1:750, 1:5000 and 1:7500 respectively in blocking solution. After three washes in TBS-T, the appropriate secondary antibody conjugated with horse radish peroxidase (Santa Cruz Biotechnology, USA) was added at a dilution of 1:2000 in blocking solution. After three washes in TBS-T, the membrane was developed with ECL Plus (RPN2132, GE Healthcare, UK). […] Semi-quantitative densitometric analysis of Western blots was performed using the ImageJ software (W. Rasband, NIH; rsb.info.nih.gov/ij/). […]

pCx43 Ser368 = assay: Phosphorylation of Cx43 at serine 368 by Western blot in HSC-2 cells; type: cell-based, rat
Description: as §2
SDS-PAGE and Western blot: Cell lysis and subsequent separation of total protein in SDS-PAGE followed by Western blot was performed as recently described (Lim et al., 2008). The membrane was blocked with 5% non-fat milk in TBS-Tween (TBS-T). The Cx43 (sc-9059, Santa Cruz Biotechnology, USA), phosphorylated Cx43 at serine 368 (pCx43 Ser368, 3511S, Cell Signaling Technology, USA), PCNA (Ab29, Abcam, UK) and β-actin (A2228, Sigma, USA) primary antibodies were applied at a dilution of 1:1000, 1:750, 1:5000 and 1:7500 respectively in blocking solution. […] Semi-quantitative densitometric analysis of Western blots was performed using the ImageJ software (W. Rasband, NIH; rsb.info.nih.gov/ij/).

HSC-2 cells [1] = assay: gap-FRAP analysis of gap junction intercellular communication; type: cell-based, rat
Description: Analysis of gap junction intercellular communication: HSC-2 cells were grown in a 60 mm cell culture dish overnight. At 90% cell confluence, hTGF-β1 (final concentration 10 ng/ml) or carbenoxolone (final concentration 40 μM) was added and incubated for 6 hours. As control, only PBS was given to the cells. Alternatively, BIM I (final concentration 5 μM) was added 30 minutes before the addition of hTGF-[3]. After a brief rinse in PBS, cells were incubated in D-MEM without phenol red, containing 5,6-carboxyfluorescein diacetate (Research Organics, USA) at a final concentration of 50 μg/ml and incubated in a 37° C. humidified incubator for 30 min. The cells were then rinsed twice with PBS and D-MEM without phenol red was added before proceeding with the Fluorescence Recovery After Photobleaching (FRAP) assay. The FRAP application included in the software package of the LEICA TCS SP2 equipped with the DM6000 (LEICA, Germany) was used. A 63× immersed objective (Leica HCX APO L U-V-I 63×/0.90 Water UV) was used. The argon laser at 488 nm was used for excitation and the fluorescence signal was captured between 500 and 535 nm. The conditions were as follows: 5 pre-bleach scans at 10% laser power, 40 bleach scans at 100% laser power followed by 60 post-bleach scans at 15 seconds intervals. During the bleaching period, the Zoom mode was used to bleach a single cell (target cell) defined in a region of interest (ROI). All data were corrected for photobleaching during post-bleach acquisition using the whole scanned area. The time constant of recovery, tau (τ), was estimated by fitting the corrected experimental data (OriginPro 7 SR4, OriginLab USA) to the following function: F(t)=F0+(F∞−F0)(1−e^−t/τ), with F(t) being the corrected fluorescence intensity and F∞ being the asymptotic value of the fluorescence intensity. The transfer constant (k) was calculated from k=1/τ and normalized by dividing by the number of cells in contact with the target cell. The fluorescence recovery for each cell was about 50%.

Snai1 = Snai1 mRNA and protein expression (real-time PCR, Western blot) in HSC-2 cells; type: cell-based, rat
Description: as §2
Reverse transcription and quantitative PCR: Total RNA was isolated from cells according to the manufacturer's protocol (RNA II kit, Machery-Nagel, Germany). All reagents for reverse transcription and real-time PCR were from Applied Biosystems (CA, USA). One microgram of total RNA was reverse transcribed to cDNA in a total reaction volume of 50 μl at conditions described in the RT kit (N8080234). Real-time PCR reactions were performed using the Fast Real Time PCR System (Applied Biosystems). […]
SDS-PAGE and Western blot: Cell lysis and subsequent separation of total protein in SDS-PAGE followed by Western blot was performed as recently described (Lim et al., 2008). […] Semi-quantitative densitometric analysis of Western blots was performed using the ImageJ software (W. Rasband, NIH; rsb.info.nih.gov/ij/). […]

Snai1 mRNA = Snai1 mRNA expression in in vitro activated primary HSCs; type: cell-based, rat; conditions: 1 and 10 ng/ml hTGF-β1, 10 hours
Description: as §1
as §2, with “In some experiments, HSC-2 cells were treated with bisindolylmaleimide I (BIM I) at a final concentration of 5 μM for 30 min before treatment with 10 ng/ml hTGF-β1.” left out
Reverse transcription and quantitative PCR: Total RNA was isolated from cells according to the manufacturer's protocol (RNA II kit, Machery-Nagel, Germany). […]

[2] = test system: Snai1 consensus sequence in the Cx43 promoter; assay: Electrophoretic mobility shift assay, HSC-2 nuclear extract on Snai1 consensus sequence of rat Cx43 promoter; type: cell-based; conditions: nuclear extract of HSC-2, 10 ng/ml hTGF-β1 2 hours, versus untreated
Source text: Electrophoretic mobility shift assay: Based on the rat Cx43 gene (NW—001084790), biotinylated double-stranded oligonucleotide probe […]-3 [SEQ ID NO: 12], with the Snai1 consensus sequence (underlined), was synthesized (Research Biolabs, Singapore). In the mutated double-stranded oligonucleotide, the Snai1 consensus sequence was changed to CAGGAA. Nuclear protein extract was obtained using the NE-PER Nuclear and Cytoplasmic Extraction kit (Pierce, USA). The electrophoretic mobility shift assay was performed using reagents from the Snai1 kit according to its protocol (AY1398, Panomics, USA). Briefly, 5 μg nuclear protein extract was incubated in a reaction mixture consisting of poly d(1-C), 5× binding buffer and nuclease-free water for 5 min before addition of 1 μl probe (stock 20 nM). The total reaction volume was 10 μl. For competition assay, 2 μl unlabeled probe (stock 2 μM) was added 5 min prior to the addition of labeled probe. The reaction was incubated at 15° C. for 30 min. The samples were separated in a 6% non-denaturing polyacrylamide gel (Invitrogen) and transferred onto a nylon membrane.

HSC-2 cells [3] = assay: Cell counting (proliferation) of HSC-2 cells; type: cell-based, rat; conditions: HSC-2, 10 ng/ml hTGF-β1, 48 hours
Description: as §3
Cell counting: After treatment, cells were washed once with PBS and detached using trypsin/EDTA. Following centrifugation at 800 rpm for 4 min, the cell pellet was resuspended in 1 ml D-MEM and the cells were counted using the forward scatter function of the GUAVA PCA-96 (Guava Technologies, CA, USA).

PCNA = assay: Expression of proliferation marker PCNA by Western blot in HSC-2 cells; type: cell-based, rat; conditions: HSC-2, 10 ng/ml hTGF-β1, 48 hours
Description: SDS-PAGE and Western blot: Cell lysis and subsequent separation of total protein in SDS-PAGE followed by Western blot was performed as recently described (Lim et al., 2008). The membrane was blocked with 5% non-fat milk in TBS-Tween (TBS-T). The Cx43 (sc-9059, Santa Cruz Biotechnology, USA), phosphorylated Cx43 at serine 368 (pCx43 Ser368, 3511S, Cell Signaling Technology, USA), PCNA (Ab29, Abcam, UK) and β-actin (A2228, Sigma, USA) primary antibodies were applied at a dilution of 1:1000, 1:750, 1:5000 and 1:7500 respectively in blocking solution. After three washes in TBS-T, the appropriate secondary antibody conjugated with horse radish peroxidase (Santa Cruz Biotechnology, USA) was added at a dilution of 1:2000 in blocking solution. After three washes in TBS-T, the membrane was developed with ECL Plus (RPN2132, GE Healthcare, UK). The incubation with pCx43 antibody was performed overnight at 4° C. All other incubations were carried out for 1 hour at room temperature. Semi-quantitative densitometric analysis of Western blots was performed using the ImageJ software (W. Rasband, NIH; rsb.info.nih.gov/ij/).
Snai1 and connexin 43 siRNAs transfection: Shortly before transfection, 1−2×10^6 HSC-2 cells were seeded in 100 mm cell culture dishes and incubated at 37° C. […]

[4] = HSC-2, 10 ng/ml hTGF-β1, up to 30 hours

## hTGF-β1: recombinant human TGF-β1, pro-fibrogenic cytokine added to HSCs
Cx43 mRNA; HSC-2, 1 ng/ml hTGF-β1, 10 hours
  decrease of Cx43 transcripts: 30%
Cx43 mRNA; HSC-2, 10 ng/ml hTGF-β1, 10 hours
  decrease of Cx43 transcripts: 45%
Cx43 mRNA; [4]
  Cx43 transcript and protein expression: decrease
Cx43 protein; HSC-2, 10 ng/ml hTGF-β1, 48 hours
  expression of Cx43: significant reduction
Cx43 protein; HSC-2, 1 and 10 ng/ml hTGF-β1, 24 hours
  Cx43 protein regulation: down-regulated
pCx43 Ser368; HSC-2, 10 ng/ml hTGF-β1, 6 hours
  phosphorylation of Cx43 at serine 368: increase
HSC-2 cells [1]; HSC-2, 10 ng/ml hTGF-β1, 6 hours, versus PBS control
  transfer rate of the fluorescence dye 5,6-carboxyfluorescein diacetate: significantly lower
Snai1; [4]
  Snai1 transcript and protein expression: increase
Snai1; HSC-2, 1 and 10 ng/ml hTGF-β1, 10 hours
  Snai1 mRNA: induced
Snai1 mRNA
  Snai1 mRNA: induced
[2]
  EMSA band of Snai1-oligonucleotide complex: more intense band
HSC-2 cells [3]
  cell number: significant reduction
PCNA
  expression of PCNA: significant reduction

## CN(C)CCCn1cc(C2=C(c3c[nH]c4ccccc34)C(=O)NC2=O)c2ccccc21 [BIM I, bisindolylmaleimide I, reference compound]
pCx43 Ser368; HSC-2, 5 μM BIM I 30 min before 10 ng/ml hTGF-β1
  phosphorylation of Cx43 at serine 368 after hTGF-β1: reduces
HSC-2 cells [1]; HSC-2, 5 μM BIM I 30 minutes before 10 ng/ml hTGF-β1
  TGF-β1-induced down-regulation of GJIC: attenuated

## CC1(C)[C@@H](OC(=O)CCC(=O)O)CC[C@]2(C)[C@H]3C(=O)C=C4[C@@H]5C[C@@](C)(C(=O)O)CC[C@]5(C)CC[C@@]4(C)[C@]3(C)CC[C@@H]12 [carbenoxolone]
HSC-2 cells [1]; HSC-2, 40 μM carbenoxolone, 6 hours
  dye transfer rate (k), reduced to: about 50%
